Laboratory results reported in patent publication US8822533B1, “Methods and compositions for repelling and/or killing insects” (The United States of America, as represented by the …, priority 2011, dated 2014).

Experiments:
[1] = system: Mosquitoes, either Aedes aegypti (Liverpool) or Anopheles stephensi Liston; assay: K&D module in vitro bioassay: biting protection, knockdown and mortality; assay type: in vivo
Experimental: In vitro bioassays were conducted as described by Klun et. al. (Klun, J. A., et al., J. Med. Entomol., 40: 293-299 (2005)). Each test replicate consisted of 3 treatments: a control (EtOH); a standard (Deet, 4.54 nmol/μl); and an experimental compound (pyrethroid analogs, 4.54 nmol/ul). The 3 treatments were randomly assigned to consecutive cells in 2, 6-cell reservoirs connected in series to a single water-bath pump; thus, 4 replicates could be tested/run. Tests were performed in an Air Science USA hood, with an air movement velocity of approx. 110-120 ft./min., temperature of 25-27° C., and RH of 15-25%. A 6-celled reservoir was connected to and heated by a constant-temperature (38° C.) water circulator (Lauda E100, Wobser GMGH and Co., Konigshofell, Germany).
Prior to each test, the upper surface of each reservoir was coated with a thin layer of high-vacuum silicone grease (Dow Corning Corp., Midland, Mich.), and the cells then filled (approx. 6 ml. capacity) or topped-off with either: (1) expired human red blood cells suspended in citrate-phosphate-dextrose-adenine (CPDA) solution, not more than 1 month past expiration date, and to which 110 mg ATP/35 ml. blood-CPDA had been added on the day of testing; or (2) CPDA+ATP×^−3, usually made up or diluted to 10^−3 ATP on the day of testing. The filled cells were then covered with an Edicol collagen membrane (Devro, Sandy Run, S.C.) strip, and then with a just-treated (110 μl of 4.54 nmol/μl treatment or control solution) organdy cloth (G Street Fabrics, Rockville, Md.) strip. Mosquitoes used in tests were either Aedes aegypti_(Liverpool) or Anopheles stephensi_Liston. K&D modules containing 5 adult females/cell were placed over a Teflon separator atop each reservoir; the sliding floors opened allowing access to the treated organdy cloth and membrane-covered cell; and the number of mosquitoes biting (proboscis inserted through the cloth) and/or observed to be engorged within each cell at the end of a 3-5 min. exposure period was recorded. Mosquitoes were used only once in a test, and then frozen and discarded.
Only tests in which 3 or more females fed in the control cell were analyzed, as lower feeding rates are indicative of substandard feeding readiness of that group of mosquitoes.
[…] Data were collected to record knockdown in 6 minutes, one hour and 24 hours post exposure.

[2] = system: Ae. aegypti mosquitoes; assay: Sleeve bite protection assay on treated uniform fabric, mosquitoes; assay type: in vivo, Aedes aegypti (Orlando, 1952)
Experimental: (§1) Biological Evaluation: Bite protection assays were conducted with laboratory-reared 7-12 day old mosquitoes or sand flies. The species used throughout these studies are Aedes aegypti (Orlando, 1952) and Phlebotomus papatasi sand flies (Jerusalem, 1983). Females were pre-selected using either a hand draw box or a mechanical aspirator. An assay was conducted by wearing sewn sleeves made from clothing material. Treated specimens were assayed with untreated controls to correct for the bite resistance afforded by material construction and composition. The untreated control was tested at the beginning of the experiment, followed by successively higher candidate repellent concentrations on sleeves. Sleeves were sewn from a cut out single ply trapezoidal pattern (33.2 cm×21 cm×25.5 cm height) of material. […] Permethrin was 35:65cis: trans, 95.85% technical material. Experimental repellents were received as neat samples with <5% impurities. The treatment occurred by dissolution of repellent in suitable quantity of acetone to saturate the clothing, but minimizing excess solution. Excess solution was quantified and this amount of excess was then used to calculate the estimated amount of repellent applied to the material. […] The photoperiod was 12:12. The mosquito cages were approximately 60000 cm^3 and each contained 175 to 225 female mosquitoes. […] Cages for sand fly work were slightly smaller (15000 cm^3) and constructed of acrylic for filming purposes and with screens on the exterior edges to allow air flow through the system. About 20-40 sand flies were released in cages for each assay. Assays started when the sleeved arm was inserted through the sleeve into the cage. Normally the hand was protected by a glove, but there were situations (i.e. sand fly data presented here) when the ability of a repellent to protect the untreated hand was determined. The assay periods were 15 min for the mosquitoes and 25-30 minutes for sand flies. The insects were allowed to land, probe and possibly bloodfeed during this time. At the conclusion of the experiment, all insects were knocked down or aspirated and the percentage that bloodfed of the total female test population in the cage was recorded. The protect level was calculated by Abbott's formula as a percentage reduction in bites compared to the untreated fabric control sleeve. Specific conditions for bioassays are noted with corresponding data contained in the Tables.

[3] = system: Phlebotomus papatasi sand flies; assay: Sleeve bite protection assay on treated uniform fabric, sand flies; assay type: in vivo, Phlebotomus papatasi (Jerusalem, 1983); details: FRACU, permethrin sleeve 0.135 mg/cm^2 + untreated strip, hand ungloved, 25-29 minutes
Experimental: as §1

[4] = ACU (50/50 NYCO) sleeve, glove on hand, 15 min, permethrin 0.118, transfluthrin 0.108, TL-I-107 0.107, TL-I-141 0.109, TL-I-105 0.107, TL-I-73 0.102 mg/cm^2
[5] = ACU (50/50 NYCO) sleeve, glove on hand, Abbott's formula vs untreated sleeve, concentrations as E1
[6] = ACU (50/50 NYCO) sleeve, glove on hand, concentrations as E1
[7] = ACU sleeve, No Glove on hand, permethrin 0.118, transfluthrin 0.108 mg/cm^2
[8] = ACU sleeve, stored one year then tested, concentrations as E1
[9] = ACU sleeve, treated specimens stored in refrigerator for one year then tested, concentrations as E1
[10] = FRACU sleeve, concentrations as E9
[11] = FRACU, permethrin sleeve 0.135 mg/cm^2 + untreated strip, Ultrathon (34.34% DEET) on hand
[12] = FRACU, permethrin sleeve 0.135 mg/cm^2 + untreated strip, hand gloved

SMILES | Knockdown 6 min (%) ([1]; 2.5 nM\cm^2, K&D module) | Knockdown 1 hour (%) ([1]; 2.5 nM\cm^2, K&D module) | Knockdown 24 hours (%) ([1]; 2.5 nM\cm^2, K&D module) | Not feeding 3 minutes (%) ([1]; 2.5 nM\cm^2, K&D module) | Knockdown 6 min (%) ([1]; 25 nM\cm^2, K&D module) | Knockdown 1 hour (%) ([1]; 25 nM\cm^2, K&D module) | Knockdown 24 hours (%) ([1]; 25 nM\cm^2, K&D module) | Not feeding 3 minutes (%) ([1]; 25 nM\cm^2, K&D module) | Blood-fed # [2, 4] | Bite Protection (%) [2, 5] [%] | Fed (%) [2, 6] [%] | Bite Protection (%) [2, 8] [%] | Fed (%) [2, 8] [%] | Blood-fed # [2, 9] | also measured
CC(C)=C[C@@H]1[C@@H](C(=O)OCc2c(Cl)c(Cl)c(C)c(Cl)c2Cl)C1(C)C [TL-I-109] | 4 | 35 | 6 | 98 | 4 | 58 | 37 | 98 |  |  |  |  |  |  | 
Cc1c(Cl)c(Cl)c(COC(=O)C2C(C=C(Cl)Cl)C2(C)C)c(Cl)c1Cl (stereo not drawn) [TL-I-111] | 0 | 16 | 8 | 90 | 2 | 23 | 16 | 92 |  |  |  |  |  |  | 
Cc1c(Cl)c(Cl)c(COC(=O)C2C(C=C(Cl)C(F)(F)F)C2(C)C)c(Cl)c1Cl (stereo not drawn) [TL-I-113] | 0 | 14 | 9 | 76 | 0 | 34 | 23 | 92 |  |  |  |  |  |  | 
CC1(C)C(C=C(Cl)Cl)C1C(=O)OC(C#N)c1cccc(Oc2ccccc2)c1 (stereo not drawn) [a-cypermethrin, reference compound] | 67 | 91 | 100 | 81 | 83 | 100 | 100 | 98 |  |  |  |  |  |  | 
CC1(C)C(C=C(Cl)Cl)C1C(=O)OCc1cccc(Oc2ccccc2)c1 (stereo not drawn) [Permethrin] |  |  |  |  |  |  |  |  | 0 # | 100 | 0.0 | 100 | 0.0 | 0 # | Blood-fed # [2, 7]: 32 #; Fed (%) [2, 7]: 18.1%; Blood-fed # ([2]; FRACU (65% Rayon, 10% Nylon, 25% Para-aramid) sleeve, permethrin 0.071, combination permethrin 0.031 + transfluthrin 0.038, transfluthrin 0.052 mg/cm^2): 24 #; Bite Protection (%) [2, 10]: 86.7%; Fed (%) [2, 10]: 10.5%; Bite Protection (%) [2, 11]: 71.5%; Blood-fed # [2, 11]: 15 #; Fed (%) [2, 11]: 7.6%; Bite Protection (%) [2, 12]: 94.0%; Blood-fed # [2, 12]: 10 #; Fed (%) [2, 12]: 4.9%; Bite Protection (%) [3]: −28.5%; Blood-fed # [3]: 11 #; Fed (%) [3]: 52.3%; Bite Protection (%) ([3]; listed as permethrin): increased bites on the skin
Cc1c(F)c(F)c(COC(=O)[C@@H]2[C@@H](C=C(Cl)Cl)C2(C)C)c(F)c1F [TL-I-141] | 100 |  | 100 | 100 | 100 |  | 100 | 100 | 0 # | 100 | 0.0 | 100 | 0.0 | 0 # | Knockdown 1 hour (%) ([1]; 2.5 nmol/cm^2, K&D module): 100%; Knockdown 1 hour (%) ([1]; 25 nmol/cm^2, K&D module): 100%; mortality at 0.0025 µM ([1]; Aedes aegypti, 24 h): 100%; mortality at 0.025 µM ([1]; Aedes aegypti, 48 h): 100%
